# Reference: patent publication US20050119316A1, “Semicarbazide derivatives and the use thereof as antithrombotics” (Merch Patent GmbH, priority 2002, published 2005)
# pIC50: −log10 of the molar value.
# Legend:
# TF/FVIIa = TF/FVIIa (Homo sapiens, UniProt P08709); test: Inhibition of TF/factor VIIa (Table 1, affinity to receptors); assay type: biochemical
# Source text: The inhibition of factor VIIa by the compounds according to the invention and the measurement of the anticoagulant and antithrombotic activity can be determined by conventional in-vitro or in-vivo methods. A conventional method for the measurement of the inhibition of factor VIIa is described, for example, by H. F. Ronning et al. in Thrombosis Research 1996, 84, 73-81.
# FXa = FXa (Homo sapiens, UniProt P00742); test: Inhibition of factor Xa (Table 1, affinity to receptors); assay type: biochemical
# Source text: The inhibition of factor Xa by the compounds according to the invention and the measurement of the anticoagulant and antithrombotic activity can be determined by conventional in-vitro or in-vivo methods. A suitable method is described, for example, by J. Hauptmann et al. in Thrombosis and Haemostasis 1990, 63, 220-223.
# The inhibition of factor Xa can be measured, for example, by the method of T. Hara et al. in Thromb. Haemostas. 1994, 71, 314-319.
# TF/FVIIa, sequence (P08709 213-466 limits assumed): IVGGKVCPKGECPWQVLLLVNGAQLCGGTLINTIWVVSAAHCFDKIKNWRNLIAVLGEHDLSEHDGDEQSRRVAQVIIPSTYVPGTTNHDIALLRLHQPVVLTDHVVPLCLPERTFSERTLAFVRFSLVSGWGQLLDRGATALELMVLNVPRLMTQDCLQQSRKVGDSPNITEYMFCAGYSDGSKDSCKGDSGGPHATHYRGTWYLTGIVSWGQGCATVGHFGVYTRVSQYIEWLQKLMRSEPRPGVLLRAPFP
# TF/FVIIa, sequence (P08709 61-212 partner limits assumed): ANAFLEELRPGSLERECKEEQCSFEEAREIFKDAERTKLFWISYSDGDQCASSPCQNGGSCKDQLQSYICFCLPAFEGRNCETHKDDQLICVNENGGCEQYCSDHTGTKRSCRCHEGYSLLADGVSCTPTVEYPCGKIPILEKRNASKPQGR
# TF/FVIIa, sequence (P13726 33-295 partner): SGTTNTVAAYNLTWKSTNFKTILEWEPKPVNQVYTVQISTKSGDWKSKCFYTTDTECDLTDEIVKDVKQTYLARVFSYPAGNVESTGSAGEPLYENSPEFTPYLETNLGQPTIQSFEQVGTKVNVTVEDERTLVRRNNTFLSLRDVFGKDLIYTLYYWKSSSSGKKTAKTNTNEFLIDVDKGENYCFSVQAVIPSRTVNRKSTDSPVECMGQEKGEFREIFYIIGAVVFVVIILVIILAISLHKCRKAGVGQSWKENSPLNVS
# FXa, sequence (P00742 235-488 limits assumed): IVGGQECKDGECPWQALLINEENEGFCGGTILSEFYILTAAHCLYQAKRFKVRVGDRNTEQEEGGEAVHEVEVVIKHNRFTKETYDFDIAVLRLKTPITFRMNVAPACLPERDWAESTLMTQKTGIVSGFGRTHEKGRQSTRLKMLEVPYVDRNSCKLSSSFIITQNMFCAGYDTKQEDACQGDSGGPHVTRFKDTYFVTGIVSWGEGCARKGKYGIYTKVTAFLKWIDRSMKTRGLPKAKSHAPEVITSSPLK
# FXa, sequence (P00742 41-179 partner limits assumed): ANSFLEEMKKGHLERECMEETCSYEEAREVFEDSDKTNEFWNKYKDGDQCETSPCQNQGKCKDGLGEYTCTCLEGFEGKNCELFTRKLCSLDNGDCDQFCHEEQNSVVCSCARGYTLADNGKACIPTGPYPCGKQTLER
pIC50 (TF/FVIIa),pIC50 (FXa),Structure (SMILES)
5.38,5.62,"CS(=O)(=O)c1ccccc1-c1ccc(NC(=O)NN(c2ccccc2)c2cccc(CN)c2)c(F)c1 [Compound 10, 1-(3-aminomethylphenyl)-4-(3-fluoro-2′-methylsulfonylbiphenyl-4-yl)-1-phenylsemicarbazide]"
7.92,7.55,"CS(=O)(=O)c1ccccc1-c1ccc(NC(=O)NN(c2ccccc2)c2cccc(C(=N)N)c2)c(F)c1 [Compound 9, 1-(3-amidinophenyl)-4-(3-fluoro-2′-methylsulfonylbiphenyl-4-yl)-1-phenylsemicarbazide]"
5.06,5.42,"CS(=O)(=O)c1ccccc1-c1ccc(NC(=O)NN(c2ccccc2)c2cccc(C(N)=NO)c2)c(F)c1 [Compound 8, 1-(3-N-hydroxyamidinophenyl)-4-(3-fluoro-2′-methylsulfonylbiphenyl-4-yl)-1-phenylsemicarbazide]"
